Assay results taken from patent US12077503B2, “Substituted cyclic amides and their use as herbicides” (FMC CORPORATION, priority 2015, dated 2024).

Tests used:
Assay type in all cases: in vivo
[1] = test system: barnyardgrass (Echinochloa crus-galli); experiment: Test G Pre-Emergence Protocol; details: Echinochloa crus-galli, pre-emergence, 312 h, evaluated after 13 days
Procedure, shortened: (§1)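 Seeds were sown in standard soil and kept one day in a glasshouse (24/16° C day/night, 14 h light, 65% humidity), then sprayed with compound in acetone/water (50:50) containing 0.5% Tween 20 at 15.625, 62.5 or 250 g/ha. Damage was scored after 13 days (0 = none, 100 = total).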

[2] = test system: corn (Zea mays); experiment: Test G Pre-Emergence Protocol; details: Zea mays, pre-emergence, 312 h, evaluated after 13 days
Procedure, shortened: as §1

[3] = test system: giant foxtail (Setaria faberi); experiment: Test G Pre-Emergence Protocol; details: Setaria faberi, pre-emergence, 312 h, evaluated after 13 days
Procedure, shortened: as §1

[4] = test system: ivy-leaved morning glory (Ipomoea hederacea); experiment: Test G Pre-Emergence Protocol; details: Ipomoea, pre-emergence, 312 h, evaluated after 13 days
Procedure, shortened: as §1

[5] = test system: redroot pigweed (Amaranthus retroflexus); experiment: Test G Pre-Emergence Protocol; details: Amaranthus retroflexus, pre-emergence, 312 h, evaluated after 13 days
Procedure, shortened: as §1

[6] = test system: velvetleaf (Abutilon theophrasti); experiment: Test G Pre-Emergence Protocol; details: Abutilon theophrasti, pre-emergence, 312 h, evaluated after 13 days
Procedure, shortened: as §1

[7] = test system: barnyardgrass (Echinochloa crus-galli); experiment: Test G Post-Emergence Protocol; details: Echinochloa crus-galli, post-emergence, 312 h
Procedure, shortened: (§2)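 Foliar application was made 8 days after sowing, using an aqueous spray of the active in acetone/water (50:50) with 0.5% Tween 20, at doses of 15.625, 62.5 or 250 g/ha. Injury was assessed 13 days later, where 100 meant the plant was fully damaged.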

[8] = test system: corn (Zea mays); experiment: Test G Post-Emergence Protocol; details: Zea mays, post-emergence, 312 h
Procedure, shortened: as §2

[9] = test system: giant foxtail (Setaria faberi); experiment: Test G Post-Emergence Protocol; details: Setaria faberi, post-emergence, 312 h
Procedure, shortened: as §2

[10] = test system: ivy-leaved morning glory (Ipomoea hederacea); experiment: Test G Post-Emergence Protocol; details: Ipomoea, post-emergence, 312 h
Procedure, shortened: as §2

[11] = test system: redroot pigweed (Amaranthus retroflexus); experiment: Test G Post-Emergence Protocol; details: Amaranthus retroflexus, post-emergence, 312 h
Procedure, shortened: as §2

[12] = test system: velvetleaf (Abutilon theophrasti); experiment: Test G Post-Emergence Protocol; details: Abutilon theophrasti, post-emergence, 312 h
Procedure, shortened: as §2

CCc1nc(NC(=O)[C@@H]2C(=O)N(C)C[C@H]2c2ccc(C(F)(F)F)cc2)n[nH]1 (racemic) [Compound 1610]
0%: pest or weed control at 15.625 g/ha ([1]; 15.625 g ai/ha, read-out: Barnyard grass damage rating (100=total damage to plant; 0=no damage to plant)) | pest or weed control at 62.5 g/ha ([1]; 62.5 g ai/ha, 100=total damage to plant, 0=no damage to plant, read-out: plant damage rating, Barnyardgrass) | pest or weed control at 250 g/ha ([1]; 250 g ai/ha, read-out: Barnyardgrass damage rating (100=total damage to plant; 0=no damage to plant)) | plant injury at 15.625 g/ha ([2]; 15.625 g ai/ha, read-out: Corn damage rating (100=total damage to plant; 0=no damage to plant)) | plant injury at 62.5 g/ha ([2]; 62.5 g ai/ha, 100=total damage to plant, 0=no damage to plant, read-out: plant damage rating, Corn) | plant injury at 250 g/ha ([2]; 250 g ai/ha, read-out: Corn damage rating (100=total damage to plant; 0=no damage to plant)) | pest or weed control at 15.625 g/ha ([3]; 15.625 g ai/ha, read-out: Foxtail, Giant damage rating (100=total damage to plant; 0=no damage to plant)) | pest or weed control at 62.5 g/ha ([3]; 62.5 g ai/ha, 100=total damage to plant, 0=no damage to plant, read-out: plant damage rating, Foxtail, Giant) | pest or weed control at 250 g/ha ([3]; 250 g ai/ha, read-out: Foxtail, Giant damage rating (100=total damage to plant; 0=no damage to plant)) | pest or weed control at 15.625 g/ha ([4]; 15.625 g ai/ha, read-out: Morning-glory, Ivy-leaved damage rating (100=total damage to plant; 0=no damage to plant)) | pest or weed control at 62.5 g/ha ([4]; 62.5 g ai/ha, 100=total damage to plant, 0=no damage to plant, read-out: plant damage rating, Morningglory, Ivy-leaved) | pest or weed control at 250 g/ha ([4]; 250 g ai/ha, read-out: Morningglory, Ivy-leaved damage rating (100=total damage to plant; 0=no damage to plant)) | pest or weed control at 15.625 g/ha ([5]; 15.625 g ai/ha, read-out: Pigweed, Redroot damage rating (100=total damage to plant; 0=no damage to plant)) | pest or weed control at 62.5 g/ha ([5]; 62.5 g ai/ha, 100=total damage to plant, 0=no damage to plant, read-out: plant damage rating, Pigweed, Redroot) | pest or weed control at 250 g/ha ([5]; 250 g ai/ha, read-out: Pigweed, Redroot damage rating (100=total damage to plant; 0=no damage to plant)) | pest or weed control at 15.625 g/ha ([6]; 15.625 g ai/ha, read-out: Velvetleaf damage rating (100=total damage to plant; 0=no damage to plant)) | pest or weed control at 62.5 g/ha ([6]; 62.5 g ai/ha, 100=total damage to plant, 0=no damage to plant, read-out: plant damage rating, Velvetleaf) | pest or weed control at 250 g/ha ([6]; 250 g ai/ha, read-out: Velvetleaf damage rating (100=total damage to plant; 0=no damage to plant)) | pest or weed control at 15.625 g/ha ([7]; 15.625 g ai/ha, evaluated after 13 days (100=total damage to plant; 0=no damage to plant), read-out: Barnyardgrass damage rating) | pest or weed control at 62.5 g/ha ([7]; 62.5 g ai/ha, evaluated after 13 days, read-out: Barnyardgrass damage rating (100=total damage to plant; 0=no damage to plant)) | pest or weed control at 250 g/ha ([7]; 250 g ai/ha, evaluated after 13 days, read-out: damage to plant, Barnyardgrass (100=total damage to plant; 0=no damage to plant)) | plant injury at 15.625 g/ha ([8]; 15.625 g ai/ha, evaluated after 13 days (100=total damage to plant; 0=no damage to plant), read-out: Corn damage rating) | plant injury at 62.5 g/ha ([8]; 62.5 g ai/ha, evaluated after 13 days, read-out: Corn damage rating (100=total damage to plant; 0=no damage to plant)) | plant injury at 250 g/ha ([8]; 250 g ai/ha, evaluated after 13 days, read-out: damage to plant, Corn (100=total damage to plant; 0=no damage to plant)) | pest or weed control at 15.625 g/ha ([9]; 15.625 g ai/ha, evaluated after 13 days (100=total damage to plant; 0=no damage to plant), read-out: Foxtail, Giant damage rating) | pest or weed control at 62.5 g/ha ([9]; 62.5 g ai/ha, evaluated after 13 days, read-out: Foxtail, Giant damage rating (100=total damage to plant; 0=no damage to plant)) | pest or weed control at 250 g/ha ([9]; 250 g ai/ha, evaluated after 13 days, read-out: damage to plant, Foxtail, Giant (100=total damage to plant; 0=no damage to plant)) | pest or weed control at 15.625 g/ha ([10]; 15.625 g ai/ha, evaluated after 13 days (100=total damage to plant; 0=no damage to plant), read-out: Morningglory, Ivy-leaved damage rating) | pest or weed control at 62.5 g/ha ([10]; 62.5 g ai/ha, evaluated after 13 days, read-out: Morningglory, Ivy-leaved damage rating (100=total damage to plant; 0=no damage to plant)) | pest or weed control at 250 g/ha ([10]; 250 g ai/ha, evaluated after 13 days, read-out: damage to plant, Morningglory, Ivy-leaved (100=total damage to plant; 0=no damage to plant)) | pest or weed control at 15.625 g/ha ([11]; 15.625 g ai/ha, evaluated after 13 days (100=total damage to plant; 0=no damage to plant), read-out: Pigweed, Redroot damage rating) | pest or weed control at 62.5 g/ha ([11]; 62.5 g ai/ha, evaluated after 13 days, read-out: Pigweed, Redroot damage rating (100=total damage to plant; 0=no damage to plant)) | pest or weed control at 250 g/ha ([11]; 250 g ai/ha, evaluated after 13 days, read-out: damage to plant, Pigweed, Redroot (100=total damage to plant; 0=no damage to plant)) | pest or weed control at 15.625 g/ha ([12]; 15.625 g ai/ha, evaluated after 13 days (100=total damage to plant; 0=no damage to plant), read-out: Velvetleaf damage rating) | pest or weed control at 62.5 g/ha ([12]; 62.5 g ai/ha, evaluated after 13 days, read-out: Velvetleaf damage rating (100=total damage to plant; 0=no damage to plant)) | pest or weed control at 250 g/ha ([12]; 250 g ai/ha, evaluated after 13 days, read-out: damage to plant, Velvetleaf (100=total damage to plant; 0=no damage to plant))
